Data set [1] has as its system inflammatory cytokines, chemokines, and receptors. The settings on record: Rat; oral gavage 0.05-1 mg/kg, 7 days. The text has this: The specific experimental details are provided in Padi, 2012.
Data set [2] can be described thus: Pharmacokinetic study following intravenous and oral administration, LC-MS/MS of plasma. It counts as in vivo, male Sprague Dawley rat. Here is the method: A pharmacokinetic study of all-D [TTNYT] (RAP-103) (SEQ ID NO:2) following intravenous and oral administration was conducted at a target dose level of 1 mg/kg in the male Sprague Dawley rat. The concentration of RAP-103 in each plasma and brain sample was measured using a suitable LC-MS/MS assay. The assay used was a research grade assay (RGA-1) which was established by assessing the accuracy, precision and the linearity of the method. Plasma concentrations generated were used to evaluate the pharmacokinetic parameters of all-D-TTNYT (RAP-103).
The dose formulation was administered intravenously to multiple animals as a slow bolus over ca 30 s via the tail vein and to a different group of animals orally via gastric gavage at a target dose volume of 1 mL/kg, to achieve a target dose level of 1 mg/kg. The dose volume administered was calculated according to the bodyweight of the animal on the day of dosing. The weight of administered dose was recorded. […] Results expressed as ng/mL

For data set [3], the target named is CCR2 (Homo sapiens, UniProt P41597). The settings on record: 30 min pretreatment; human MCP-1 50 ng/mL, 90 min; cited from earlier work.
The target of data set [4] is CCR5 (Homo sapiens, UniProt P51681). The settings on record: 30 min pretreatment; human MIP-1β 50 ng/mL, 90 min; cited from earlier work.
In data set [5] the test system is inflammatory cytokines, chemokines, and receptors. The settings on record: Rat; oral gavage 0.05-1 mg/kg, 7 days; cited from earlier work.
In data set [6] the test system is rats with partial ligation of the sciatic nerve. The settings on record: cited from earlier work.
In data set [7] the test system is inflammatory cytokines. The settings on record: Hu; cited from earlier work.
The target of data set [8] is T1, CCR2 (MCP-1) (Homo sapiens, UniProt P41597).
T1 construct: Purified human monocytes were treated with 20 pM of All-D-pentapeptides for 30 minutes; endogenous in cells; host or cells: purified human monocytes
Briefly: CCR2 (MCP-1) elicited chemotaxis of human monocytes, all-D-pentapeptides (FIG. 4). It counts as cell-based. The settings on record: 20 pM peptide 30 minutes; MCP-1 0.6 nM, 2 hours. Here is the method:
Purified human monocytes were treated with 20 pM of All-D-pentapeptides for 30 minutes prior to chemotaxis against human MCP-1 (0.6 nM) for 2 hours. […] A representative experiment is shown comprising triplicate determinations and is presented as relative fluorescence units, Mean±SEM.

Data set [9] deals with T2, MCP-1/CCR2 (Homo sapiens, UniProt P41597).
T2 construct: endogenous in cells; host or cells: human monocytes
The data set is described as follows: MCP-1/CCR2 elicited β-integrin-mediated adhesion of human monocytes to human fibronectin (FIG. 5). It counts as cell-based. The settings on record: 10 minutes pretreatment. Here is the method:
The results are of interest as approved treatments for MS include the immunosupressive monoclonal antibody therapy “Tysabri”, which blocks T cell binding to cellular integrins, and thereby infiltration of inflammatory cells into brains of MS patients.
All-D-(IDNYT) Inhibition of Human Monocyte and THP-1 Cell β-Integrin-Mediated Adhesion to hu-Fibronectin
Human monocytes were treated with the indicated doses of all-D-(IDNYT) for 10 minutes prior to adherence to the β-integrin human fibronectin. Data is the average of two separate experiments, conducted with triplicate determinations. Data are presented as Mean±SEM of the normalized adherence response from two experiments. The IC50 for inhibition of MCP-1 stimulated adherence was generated using a nonlinear inhibition curve fit in GraphPad Prism Version 5.0.

Data set [10] deals with T3, CCL2 (MCP-1) (Homo sapiens, UniProt P41597).
T3 construct: endogenous in cells; host or cells: human monocytes
T3 sequence (P41597 1-360 isoform P41597-2): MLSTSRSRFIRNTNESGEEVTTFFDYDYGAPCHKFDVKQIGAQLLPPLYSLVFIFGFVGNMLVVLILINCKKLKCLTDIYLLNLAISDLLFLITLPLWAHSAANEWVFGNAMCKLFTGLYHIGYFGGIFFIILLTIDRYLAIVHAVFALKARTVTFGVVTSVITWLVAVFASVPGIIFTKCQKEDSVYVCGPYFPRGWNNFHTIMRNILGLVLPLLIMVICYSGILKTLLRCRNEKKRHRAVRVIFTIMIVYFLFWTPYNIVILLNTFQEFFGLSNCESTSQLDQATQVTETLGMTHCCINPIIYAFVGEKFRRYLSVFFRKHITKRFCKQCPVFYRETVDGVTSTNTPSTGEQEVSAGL
Briefly: Blocking CCL2 (MCP-1) chemotaxis at low concentration (FIG. 3). It counts as cell-based. The settings on record: compounds at 10^−14 M. The text has this: FIG. 3 illustrates the effects of several all-D amino acid peptides in blocking CCL2 (MCP-1) chemotaxis at low concentration. The amino acid sequences of these peptides are: SSTYR (SEQ ID NO:3), TTSYT (SEQ ID NO:4) and NTSYR (SEQ ID NO:7)
In order to show the generalizability of the all-D-amino acid modifications we synthesized additional examples and tested them for antagonism of chemokines receptors implicated in the subject diseases, FIG. 3
Additional All-D-(Pepntapeptides) from V2 Region Block CCR5/CCR2 Human Monocyte Chemotaxis
In FIG. 3, the effects of RAPs in blocking CCL2 (MCP-1) chemotaxis was illustrated.

Data set [11] addresses TLR4 (human, UniProt O00206 24-839). Briefly: cell-based or functional assay.

Non-standard residues stand in square brackets, D forms with d. No end group written: not given here.

T1 sequence (P41597 whole entry): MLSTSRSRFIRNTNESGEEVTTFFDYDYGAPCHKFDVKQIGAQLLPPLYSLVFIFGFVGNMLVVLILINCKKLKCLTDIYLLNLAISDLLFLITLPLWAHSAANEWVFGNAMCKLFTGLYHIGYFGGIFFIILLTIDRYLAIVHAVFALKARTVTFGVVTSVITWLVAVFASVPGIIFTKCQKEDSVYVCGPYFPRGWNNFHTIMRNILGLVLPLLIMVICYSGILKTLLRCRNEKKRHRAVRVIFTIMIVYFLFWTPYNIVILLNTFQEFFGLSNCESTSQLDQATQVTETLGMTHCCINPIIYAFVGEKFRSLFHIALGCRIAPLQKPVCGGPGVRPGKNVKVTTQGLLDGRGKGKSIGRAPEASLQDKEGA
T2 sequence (P41597 whole entry): as above
Chain of CCR2 (P41597 whole entry): as above
Chain of TLR4 (O00206 24-839): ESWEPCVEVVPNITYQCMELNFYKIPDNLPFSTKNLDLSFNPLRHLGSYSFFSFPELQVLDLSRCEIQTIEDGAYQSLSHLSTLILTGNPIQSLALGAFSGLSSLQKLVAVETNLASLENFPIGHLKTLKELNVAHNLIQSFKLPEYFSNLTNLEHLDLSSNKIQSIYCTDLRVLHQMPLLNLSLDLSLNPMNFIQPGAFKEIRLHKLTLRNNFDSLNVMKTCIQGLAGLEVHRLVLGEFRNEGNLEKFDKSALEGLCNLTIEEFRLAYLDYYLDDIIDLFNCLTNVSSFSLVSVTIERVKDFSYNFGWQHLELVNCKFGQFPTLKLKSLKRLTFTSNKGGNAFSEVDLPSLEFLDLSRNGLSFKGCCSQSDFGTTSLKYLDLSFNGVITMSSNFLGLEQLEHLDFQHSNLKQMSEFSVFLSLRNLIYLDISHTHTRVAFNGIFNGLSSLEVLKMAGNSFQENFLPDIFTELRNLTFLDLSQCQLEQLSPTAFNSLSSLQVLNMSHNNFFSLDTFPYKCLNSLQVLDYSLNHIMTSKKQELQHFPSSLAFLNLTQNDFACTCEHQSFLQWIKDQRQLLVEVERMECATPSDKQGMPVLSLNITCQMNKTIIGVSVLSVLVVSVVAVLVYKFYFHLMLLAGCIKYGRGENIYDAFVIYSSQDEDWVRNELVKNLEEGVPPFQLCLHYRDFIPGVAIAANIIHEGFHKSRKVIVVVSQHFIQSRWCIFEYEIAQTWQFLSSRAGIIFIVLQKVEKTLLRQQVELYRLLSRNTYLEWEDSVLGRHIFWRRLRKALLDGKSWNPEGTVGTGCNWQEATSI
Chain of CCR5 (P51681 whole entry): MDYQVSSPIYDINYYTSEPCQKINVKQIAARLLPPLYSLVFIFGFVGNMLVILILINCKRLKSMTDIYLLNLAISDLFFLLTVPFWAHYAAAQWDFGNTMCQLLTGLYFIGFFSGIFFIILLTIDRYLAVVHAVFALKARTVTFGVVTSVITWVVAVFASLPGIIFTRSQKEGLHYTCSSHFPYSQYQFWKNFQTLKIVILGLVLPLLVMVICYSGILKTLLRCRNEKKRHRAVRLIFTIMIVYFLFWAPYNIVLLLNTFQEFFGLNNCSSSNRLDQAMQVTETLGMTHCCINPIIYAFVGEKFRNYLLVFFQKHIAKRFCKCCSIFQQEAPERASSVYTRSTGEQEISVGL

For `C[C@H](O)[C@@H](N)C(=O)N[C@@H](C(=O)N[C@H](CC(N)=O)C(=O)N[C@H](Cc1ccc(O)cc1)C(=O)N[C@@H](C(=O)O)[C@H](C)O)[C@H](C)O` [RAP-103, All-D-TTNYT], in data set [1], the CCL2 change entry is on record as “decrease”, the CCL3 change result is recorded as “decrease”, the CCR2 change entry is reported as “decrease” and the CCR5 change result is recorded as “decrease”. Also, in data set [1], the MCP-1 change entry is listed as “decrease”, the MIP-1α change entry is “decrease” and the TNFα change result is listed as “decrease”. Also, the “time of peak levels in plasma” value in [2] (1 mg/kg, male rat) lay in the range of 10 to 15 min. Further, in [2] (intravenous and oral, 1 mg/kg, male rat), the “tolerability of dose administrations” value is on record as “well tolerated”. The level at 0.25 h in data set [2] (male, Sprague-Dawley, rat, plasma, po, 1 mg/kg, oral 1 mg/kg, 0.25 h, individual animals 004M, 005M, 006M, read-out: plasma concentration) turned out to be 6.42 ng/mL. Besides, the level at 0.5 h in data set [2] (male, Sprague-Dawley, rat, plasma, po, 1 mg/kg, oral 1 mg/kg, 0.5 h, individual animals 004M, 005M, 006M, read-out: plasma concentration) worked out at 10.2 ng/mL. Besides, the level at 2 h in data set [2] (male, Sprague-Dawley, rat, plasma, po, 1 mg/kg, oral 1 mg/kg, 2 h, individual animals 004M, 005M, 006M, read-out: plasma concentration) is 12 ng/mL. The level at 4 h in [2] (male, Sprague-Dawley, rat, plasma, po, 1 mg/kg, oral 1 mg/kg, 4 h, individual animals 004M, 005M, 006M, read-out: plasma concentration) was found to be 9.09 ng/mL. Moreover, in data set [2] (male, Sprague-Dawley, rat, plasma, po, 1 mg/kg, oral 1 mg/kg, 8 h, individual animals 004M, 005M, 006M, read-out: plasma concentration), the level at 8 h was 6.67 ng/mL. Besides, in data set [2] (oral 1 mg/kg, male rat, 0.083 h, individual animals 004M, 005M, 006M), the plasma concentration result is reported as “<LLOQ”. For the same molecule, the plasma concentration entry in [2] (oral 1 mg/kg, male rat, 0.25 h, individual animals 004M, 005M, 006M, 1 mg/kg) is reported as “<LLOQ”. Moreover, in data set [2] (oral 1 mg/kg, male rat, 1 h, individual animals 004M, 005M, 006M), the plasma concentration entry is given as “<LLOQ”. The plasma concentration entry in data set [2] (oral 1 mg/kg, male rat, 2 h, individual animals 004M, 005M, 006M, 1 mg/kg) is on record as “<LLOQ”. For the same molecule, in [2] (oral 1 mg/kg, male rat, 4 h, individual animals 004M, 005M, 006M, 1 mg/kg), the plasma concentration entry is listed as “<LLOQ”. In [2] (oral 1 mg/kg, male rat, 8 h, individual animals 004M, 005M, 006M, 1 mg/kg), the plasma concentration entry is given as “<LLOQ”. In data set [2] (oral 1 mg/kg, male rat, 12 h, individual animals 004M, 005M, 006M), the plasma concentration entry was “<LLOQ”. For the same molecule, in data set [3], the “blocking of MCP-1-elicited chemotaxis” value is on record as “potently blocking”. Also, in data set [4], the “blocking of MIP-1β-elicited chemotaxis” value is “potently blocking”. In addition, in data set [5], the IL-1β change entry is reported as “decrease” and the IL-6 change result was “decrease”. In [6] (0.2-1 mg/kg, days 8 to 12), the already established hypersensitivity result is given as “reverses”. For the same molecule, in data set [6] (oral 0.05-1 mg/kg for 7 days), the “development of thermal hyperalgesia” value was “inhibits the development” and the mechanical allodynia entry was “fully prevents”. For the same molecule, in data set [6] (peripheral nerve injury), the monocyte infiltration entry is given as “reduce” and the spinal microglial activation entry is recorded as “reduce”.
In the case of D-ala1-peptide T-amide [RAP-101], in [7], the IL-1 change entry was “decrease”, the IL-6 change result is recorded as “decrease”, the IL-8 change result is “decrease” and the TNFα change entry is “decrease”.
For ETWYS ([dE][dT][dW][dY][dS]), the “inhibition of CCR2 (MCP-1) elicited chemotaxis” value (“inhibition of CCR2” for short) in data set [8] is reported as “potently block”.
Turning to IDNYT ([dI][dD][dN][dY][dT]), in [8], the “inhibition of CCR2” value is recorded as “potently block”. The “blocking of MCP-1 elicited adhesion to human fibronectin” value in data set [9] was “potently blocking”.
Take NTRYR: in data set [8], the “inhibition of CCR2” value is recorded as “potently block”.
Same read-out and setting: the entry for “NTSYG ([dN][dT][dS][dY]G; not fully specified (residue 5))” is “potently block”.
Take NTSYR ([dN][dT][dS][dY][dR]): the “blocking CCL2 (MCP-1) chemotaxis” value in data set [10] was “retain potency”.
The same measure, in the same setting: the entry for SSTYR ([dS][dS][dT][dY][dR]) is “retain potency”.
Still for that read-out and setting: the entry for TTSYT ([dT][dT][dS][dY][dT]) is “retain potency”.
For [dT][dT][dN][dY][dT] [all-D[TTNYT] (RAP-103)], in [11], the “IC50 for inhibition of LPS-induced TNFα production in monocyte-derived iDC” value was approximately 0.1 pM.

These data come from patent US20150376235A1, “Peptides for the Treatment of Immune Reconstitution Inflammatory Syndrome (IRIS) and Related Diseases” (priority 2014, published 2015).
